In patent US6064908A, “Device for ionophoresis comprising at least a membrane electrode assembly, for the transcutaneous administration of active principles to a subject” (Elf Aquitaine, priority 1996, dated 2000):

What was measured:
[1] = tested on: factor Xa; experiment: antifactor Xa activity of the active principle; format: biochemical; settings: sodium salt
Protocol: The assay of the pentasaccharide in the receiver compartment was based on investigating its antifactor Xa activity. The assay was carried out either directly on the medium sample from the receiver compartment or after dilution, using a ROTACHROM HEPARIN 8® assay kit, with a complementary buffer for the assay instrument and the bovine antithrombin III, these various elements being supplied by the company STAGO, using a HITACHI 717 assay instrument. The calibration curve was established using a "Golden Standard" pentasaccharide solution to which an antifactor Xa activity equal to 13 units per ml was assigned.

[2] = administration of pentasaccharide sodium salt in mini pigs by iontophoresis at set current density; antifactor Xa plasma levels; format: in vivo, mini pigs of the YUCATAN strain
Protocol: Administration in mini pigs of pentasaccharide sodium salt by iontophoresis at a set current density.
Specialists consider mini pigs of the YUCATAN strain to be an excellent animal model for studying the administration in man of medicaments by iontophoresis. This is because the skin structure of this animal is very similar to that of human skin.
The following tests were carried out on the aforementioned mini pig with the aim of comparing the administration by iontophoresis of the sodium salt of the pentasaccharide used in Example 1 with administration by subcutaneous injection.
For these tests, pairs of adhesive electrode assemblies were formed, each pair comprising a donor electrode assembly, equipped with a reversible negative electrode (active electrode) and containing the pentasaccharide to be administered, and a passive electrode assembly formed by a positive electrode (back electrode) in contact with a second reservoir element containing an arbitrary (i.e. indifferent) electrolyte.
In the donor electrode assembly according to the invention, as well as in the reference donor assembly, the electrode 6 made of chloridized silver contained a quantity of silver chloride equivalent to 1.8 mAh/cm^2, thus allowing the electrode to sustain the quantity of electricity flowing through the electrodes over the duration of the iontophoretic treatment, namely 0.88 mAh/cm^2.
The primary electrolyte medium constituting the primary reservoir element 11 of the donor electrode assembly according to the invention, as well as the conducting, absorbent, porous material forming the reservoir element 11 of the reference electrode assembly, each consisted of a sheet of blotting paper made of cellulose fibres supplemented by polypropylene fibrils, having a surface area of 20 cm^2 and a thickness of 0.5 mm and being impregnated, to a level of 50 mg/cm^2, with an aqueous solution containing 2% by weight of pentasaccharide. Each reservoir element 11 contained in total 1 g of solution, i.e. 20 mg of pentasaccharide over 20 cm^2 of active surface (1 mg/cm^2). 20 mg of pentasaccharide were therefore employed in total per animal.
The selectively permeable membrane separating the recesses 2 and 15 of the donor electrode assembly according to the invention, that is to say separating the primary 11 and secondary 20 reservoir elements of the said electrode assembly, consisted of a 50 μm thick film of the polyether block amide PEBAX MV 1041 defined in Example 1.
In each passive electrode assembly, the positive electrode (back electrode) made of chloridized silver contained a quantity of silver chloride equivalent to 0.1 mAh/cm^2 and the reservoir element associated with this electrode consisted of a sheet of blotting paper made of cellulose fibres supplemented by polypropylene fibrils having a surface area of 20 cm^2 and a thickness of 0.5 mm and was impregnated with an aqueous solution of NaCl to contain 6% by weight of this salt.
An electric signal generator which could be connected to the electrodes of each pair of electrode assemblies, made it possible to deliver a continuous electric signal of controlled intensity between the said electrodes.
Five days before each test, the animals were catheterized in the two jugulars, as is well known for any experimentation in medicament administration, in order to make it possible to take regular blood samples intended for assaying the antifactor Xa activities and thereby to evaluate the quantities of active principle that pass through the skin to enter the circulatory system and therefore to check the effectiveness of the iontophoretic treatment.
The animals, fasted from the day before the experiments, were placed in specialized hammocks. […]

## O=C(O)C1OC(OC2C(COS(=O)(=O)O)OC(OC3C(C(=O)O)OC(OC4C(COS(=O)(=O)O)OC(O)C(NS(=O)(=O)O)C4O)C(OS(=O)(=O)O)C3O)C(NS(=O)(=O)O)C2OS(=O)(=O)O)C(O)C(O)C1OC1OC(COS(=O)(=O)O)C(O)C(O)C1NS(=O)(=O)O (stereo not shown) [pentasaccharide]
[1]
  antifactor Xa activity: 0.65 "Golden Standard" units per microgram
[2]; Example 2 vs Example 1
  bioavailability for the in-vivo tests vs in-vitro utilization factors: higher than the utilization factors which were obtained for the in-vitro tests
[2]; Test 2a: passive, no current
  Bioavailability: 0%
[2]; Test 2a: passive, no current, 0 h
  plasma level, Antifactor Xa: 0 units/ml
[2]; Test 2a: passive, no current, 0.25 h
  plasma level, Antifactor Xa: 0 units/ml
[2]; Test 2a: passive, no current, 0.50 h
  plasma level, Antifactor Xa: 0 units/ml
[2]; Test 2a: passive, no current, 1.00 h
  plasma level, Antifactor Xa: 0 units/ml
[2]; Test 2a: passive, no current, 2.00 h
  plasma level, Antifactor Xa: 0 units/ml
[2]; Test 2a: passive, no current, 4.00 h
  plasma level, Antifactor Xa: 0 units/ml
[2]; Test 2a: passive, no current, 6.00 h
  plasma level, Antifactor Xa: 0 units/ml
[2]; Test 2a: passive, no current, 8.00 h
  plasma level, Antifactor Xa: 0 units/ml
[2]; Test 2a: passive, no current, 10.00 h
  plasma level, Antifactor Xa: 0 units/ml
[2]; Test 2a: passive, no current, 16.00 h
  plasma level, Antifactor Xa: 0 units/ml
[2]; Test 2a: passive, no current, 24.00 h
  plasma level, Antifactor Xa: 0 units/ml
[2]; Test 2a: passive, no current, 30.00 h
  plasma level, Antifactor Xa: 0 units/ml
[2]; Test 2b vs Test 2c
  plasma levels (antifactor Xa), invention vs reference iontophoresis: more than three times higher
[2]; Test 2b: iontophoresis, PEBAX MV 1041 membrane, 20 mg, 8 hours
  plasma level, Antifactor Xa: 1 units/ml
[2]; Test 2b: iontophoresis, PEBAX MV 1041 membrane, 20 mg, 8 hours, 0 h
  plasma level, Antifactor Xa: 0 units/ml
[2]; Test 2b: iontophoresis, PEBAX MV 1041 membrane, 20 mg, 8 hours, 0.25 h
  plasma level, Antifactor Xa: 0.07 units/ml
[2]; Test 2b: iontophoresis, PEBAX MV 1041 membrane, 20 mg, 8 hours, 0.50 h
  plasma level, Antifactor Xa: 0.14 units/ml
[2]; Test 2b: iontophoresis, PEBAX MV 1041 membrane, 20 mg, 8 hours, 1.00 h
  plasma level, Antifactor Xa: 0.36 units/ml
[2]; Test 2b: iontophoresis, PEBAX MV 1041 membrane, 20 mg, 8 hours, 2.00 h
  plasma level, Antifactor Xa: 0.81 units/ml
[2]; Test 2b: iontophoresis, PEBAX MV 1041 membrane, 20 mg, 8 hours, 4.00 h
  plasma level, Antifactor Xa: 1.3 units/ml
[2]; Test 2b: iontophoresis, PEBAX MV 1041 membrane, 20 mg, 8 hours, 6.00 h
  plasma level, Antifactor Xa: 0.98 units/ml
[2]; Test 2b: iontophoresis, PEBAX MV 1041 membrane, 20 mg, 8 hours, 10.00 h
  plasma level, Antifactor Xa: 0.79 units/ml
[2]; Test 2b: iontophoresis, PEBAX MV 1041 membrane, 20 mg, 8 hours, 16.00 h
  plasma level, Antifactor Xa: 0.38 units/ml
[2]; Test 2b: iontophoresis, PEBAX MV 1041 membrane, 20 mg, 8 hours, 24.00 h
  plasma level, Antifactor Xa: 0.12 units/ml
[2]; Test 2b: iontophoresis, PEBAX MV 1041 membrane, 20 mg, 8 hours, 30.00 h
  plasma level, Antifactor Xa: 0.04 units/ml
[2]; Test 2b: iontophoresis, PEBAX MV 1041 membrane, 20 mg, 8 hours, […]
  plasma level, Antifactor Xa: 0.61 units/ml
[2]; Test 2c: reference iontophoresis, no membrane, 20 mg, 8 hours
  plasma level, Antifactor Xa: 0.35 units/ml
[2]; Test 2c: reference iontophoresis, no membrane, 20 mg, 8 hours, 0 h
  plasma level, Antifactor Xa: 0 units/ml
[2]; Test 2c: reference iontophoresis, no membrane, 20 mg, 8 hours, 0.25 h
  plasma level, Antifactor Xa: 0.03 units/ml
[2]; Test 2c: reference iontophoresis, no membrane, 20 mg, 8 hours, 0.50 h
  plasma level, Antifactor Xa: 0.05 units/ml
[2]; Test 2c: reference iontophoresis, no membrane, 20 mg, 8 hours, 1.00 h
  plasma level, Antifactor Xa: 0.09 units/ml
[2]; Test 2c: reference iontophoresis, no membrane, 20 mg, 8 hours, 2.00 h
  plasma level, Antifactor Xa: 0.13 units/ml
[2]; Test 2c: reference iontophoresis, no membrane, 20 mg, 8 hours, 4.00 h
  plasma level, Antifactor Xa: 0.27 units/ml
[2]; Test 2c: reference iontophoresis, no membrane, 20 mg, 8 hours, 6.00 h
  plasma level, Antifactor Xa: 0.29 units/ml
[2]; Test 2c: reference iontophoresis, no membrane, 20 mg, 8 hours, 10.00 h
  plasma level, Antifactor Xa: 0.34 units/ml
[2]; Test 2c: reference iontophoresis, no membrane, 20 mg, 8 hours, 16.00 h
  plasma level, Antifactor Xa: 0.11 units/ml
[2]; Test 2c: reference iontophoresis, no membrane, 20 mg, 8 hours, 24.00 h
  plasma level, Antifactor Xa: 0.08 units/ml
[2]; Test 2c: reference iontophoresis, no membrane, 20 mg, 8 hours, 30.00 h
  plasma level, Antifactor Xa: 0.01 units/ml
[2]; Test 2c: reference iontophoresis, no membrane, 20 mg, 8 hours, […]
  plasma level, Antifactor Xa: 0.14 units/ml
[2]; Test 2d: subcutaneous injection 0.200 mg/kg, 0 h
  plasma level, Antifactor Xa: 0 units/ml
[2]; Test 2d: subcutaneous injection 0.200 mg/kg, 0.25 h
  plasma level, Antifactor Xa: 0.11 units/ml
[2]; Test 2d: subcutaneous injection 0.200 mg/kg, 0.50 h
  plasma level, Antifactor Xa: 0.13 units/ml
[2]; Test 2d: subcutaneous injection 0.200 mg/kg, 1.00 h
  plasma level, Antifactor Xa: 0.17 units/ml
[2]; Test 2d: subcutaneous injection 0.200 mg/kg, 2.00 h
  plasma level, Antifactor Xa: 0.22 units/ml
[2]; Test 2d: subcutaneous injection 0.200 mg/kg, 4.00 h
  plasma level, Antifactor Xa: 0.26 units/ml
[2]; Test 2d: subcutaneous injection 0.200 mg/kg, 6.00 h
  plasma level, Antifactor Xa: 0.24 units/ml
[2]; Test 2d: subcutaneous injection 0.200 mg/kg, 8.00 h
  plasma level, Antifactor Xa: 0.15 units/ml
[2]; Test 2d: subcutaneous injection 0.200 mg/kg, 10.00 h
  plasma level, Antifactor Xa: 0.12 units/ml
[2]; Test 2d: subcutaneous injection 0.200 mg/kg, 16.00 h
  plasma level, Antifactor Xa: 0.06 units/ml
[2]; Test 2d: subcutaneous injection 0.200 mg/kg, 24.00 h
  plasma level, Antifactor Xa: 0.00 units/ml
[2]; Test 2d: subcutaneous injection 0.200 mg/kg, 30.00 h
  plasma level, Antifactor Xa: 0.00 units/ml
[2]; Test 2d: subcutaneous injection 0.200 mg/kg, […]
  plasma level, Antifactor Xa: 0.06 units/ml
